Experiment [1] addresses T1, MET (Homo sapiens, UniProt P08581). Briefly: Test A: HTRF MET assay in 96-well format. Format: biochemical. Details: The His-Tev-MET (956-1390) recombinant DNA in pFastBac (Invitrogen) is transfected into insect cells; His tag (N, cleaved yes); TEV cleavage site (N); made in house; host or cells: SF21 insect cells (baculovirus, pFastBac). To be noted: MET 5 nM, 10 μM ATP. On the procedure:
I) Expression and Purification of MET, Cytoplasmic Domain
The His-Tev-MET (956-1390) recombinant DNA in pFastBac (Invitrogen) is transfected into insect cells, and after several viral amplification steps, the final baculovirus stock is tested for the expression of the protein of interest.
After infection for 72 h at 27° C. with the recombinant virus, the SF21 cell cultures are harvested by centrifugation and the cell pellets are stored at −80° C.
The cell pellets are resuspended in lysis buffer (buffer A [50 mM HEPES, pH 7.5, 250 mM NaCl, 10% glycerol, 1 mM TECP]; +cocktail of protease inhibitors, Roche Diagnostics, without EDTA, ref 1873580), stirred at 4° C. until the mixture is homogeneous and then lyzed mechanically using a “Dounce” type apparatus.
After centrifugation, the lysis supernatant is incubated for 2 h at 4° C. with nickel chelate resin (His-Trap 6 Fast Flow™, GE HealthCare). After washing with 20 volumes of buffer A, the suspension is packed into a column, and the proteins are eluted with a gradient of buffer B ([…]+290 mM imidazole).
The fractions containing the protein of interest for the purpose of electrophoretic analysis (SDS PAGE) are combined, concentrated by ultrafiltration (10 kDa cut-off) and injected onto an exclusion chromatography column (Superdex™ 200, GE HealthCare) equilibrated in buffer A.
After enzymatic cleavage of the histidine tag, the protein is reinjected onto a new IMAC nickel chelate chromatography column (His-Trap 6 Fast Flow™, GE HealthCare) equilibrated in buffer A. The fractions eluted with a gradient of buffer B and containing the protein of interest after electrophoresis (SDS PAGE) are finally combined and conserved at −80° C.
For the production of autophosphorylated protein, the previous fractions are incubated for 1 h at ambient temperature after the addition of 2 mM ATP, 2 mM MgCl2, and 4 mM Na3VO4. After the reaction has been stopped with 5 mM of EDTA, the reaction mixture is injected onto a HiPrep desalifying column (GE HealthCare) preequilibrated in buffer A+4 mM Na3VO4, and the fractions containing the protein of interest (SDS PAGE analysis) are combined and stored at −80° C. The degree of phosphorylation is verified by mass spectrometry (LC-MS) and by peptide mapping.
• A) Test A: HTRF MET assay in 96-well format
MET at a final concentration of 5 nM is incubated in a final volume of 50 μl of enzymatic reaction in the presence of the test molecule (for a final concentration range of from 0.17 nM to 10 μM, 3% DMSO final concentration) in 10 mM MOPS buffer, pH 7.4, 1 mM DTT, 0.01% Tween 20. The reaction is initiated with the substrate solution to obtain final concentrations of 1 μg/ml poly-(GAT), 10 μM ATP and 5 mM MgCl2. After incubation for 10 min at ambient temperature, the reaction is stopped with a 30 μl mix so as to obtain a final solution of 50 mM Hepes pH 7.5, 500 mM potassium fluoride, 0.1% BSA and 133 mM EDTA in the presence of 80 ng of streptavidin 61SAXLB Cis-Bio Int. and 18 ng of anti-phosphotyrosine Mab PT66-Europium Cryptate per well. After incubation for 2 hours at ambient temperature, the reading is taken at 2 wavelengths, 620 nm and 665 nm, on a reader for the TRACE/HTRF technique and the % inhibition is calculated from the 665/620 ratios.
For orientation: Time-resolved FRET reads energy transfer from a long-lived donor to a nearby acceptor.
Target sequence in this assay (P08581 956-1390): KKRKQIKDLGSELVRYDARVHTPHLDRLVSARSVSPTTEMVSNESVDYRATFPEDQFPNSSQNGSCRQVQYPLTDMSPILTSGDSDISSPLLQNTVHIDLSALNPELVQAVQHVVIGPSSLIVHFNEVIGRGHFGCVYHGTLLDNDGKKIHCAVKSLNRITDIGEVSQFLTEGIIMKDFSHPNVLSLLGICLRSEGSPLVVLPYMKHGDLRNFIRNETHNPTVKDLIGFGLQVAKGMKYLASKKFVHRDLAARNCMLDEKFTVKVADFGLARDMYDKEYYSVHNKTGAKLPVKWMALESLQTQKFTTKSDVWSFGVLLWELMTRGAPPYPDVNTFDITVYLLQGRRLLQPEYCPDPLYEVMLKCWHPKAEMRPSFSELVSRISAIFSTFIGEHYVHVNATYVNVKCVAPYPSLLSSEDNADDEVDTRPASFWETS

Experiment [2] relates to HCT116 cells, MKN45 cells. Briefly: Test C: Measurement of cell proliferation by 14C-thymidine pulse. Format: cell-based. To be noted: 14C-thymidine incorporation, 96 h of treatment; cell line not given. On the procedure: (§1) Stop the reaction with 100 μl of stop solution. Read without delay at […], 0.1 second on Wallac Victor plate reader. • C) Test C: Measurement of cell proliferation by ^14c-thymidine pulse
The cells are seeded into Cytostar 96-well plates in 180 μl for 4 hours at 37° C. and 5% CO2: HCT116 cells at a rate of 2500 cells per well in DMEM medium+10% foetal calf serum+1% L-glutamine and MKN45 cells at a rate of 7500 cells per well in RPMI medium+10% foetal calf serum+1% L-glutamine. After these 4 hours of incubation, the products are added in 10 μl as a 20-fold concentrated solution according to the dilution method mentioned for the ELISA. The products are tested at 10 concentrations in duplicate from 10 000 nM to 0.3 nM with an increment of 3.
After treatment for 72 h, add 10 μl of ^14C-thymidine at 10 μCi/ml to obtain 0.1 μCi per well. The ^14C-thymidine incorporation is measured on a Micro-Beta machine (Perkin-Elmer) after 24 hours of pulse and 96 h of treatment.
All the steps of the assay are automated on BIOMEK 2000 or TECAN stations.

In experiment [3] the target is T1, MET. Briefly: Test B: Inhibition of the autophosphorylation of MET; ELISA technique (pppY1230,1234,1235) in MKN45 cells. In kind it is cell-based. Also on record: Seed MKN45 cells into 96-well plates (Cell coat BD polylysine) at 20 000 cells/well; endogenous in cells; host or cells: MKN45 cells. To be noted: 1 h treatment, PhosphoMET ELISA. On the procedure: Leave to adhere for 24 hours in an incubator.
The cells are treated the day after seeding with the products at 6 concentrations in duplicate for 1 h. At least 3 control wells are treated with the same final amount of DMSO.
Product dilution: Stock at 10 mM in pure DMSO—range from 10 mM to 30 μM with an increment of 3 in pure DMSO—intermediate 1/50 dilutions in culture medium and then removal of 10 μl added directly to the cells (200 μl): final range of 10 000 to 30 nM.
At the end of the incubation, carefully remove the supernatant and rinse with 200 μl of PBS. Next, place 100 μl of lysis buffer directly in the wells on ice and incubate at 4° C. for 30 minutes. Lysis buffer: 10 mM Tris HCl, pH7.4, 100 mM NaCl, 1 mM EDTA, 1 mM EGTA, 1% Triton X-100, 10% glycerol, 0.1% SDS, 0.5% deoxycholate, 20 mM NaF, 2 mM Na3VO4, 1 mM PMSF and cocktail of antiproteases.
The 100 μl of lysates are transferred into a V-bottomed polypropylene plate and the ELISA is performed immediately, or the plate is frozen at −80° C. • b) PhosphoMET ELISA BioSource Kit KH00281
Into each well of the kit plate, add 70 μl of kit dilution buffer+30 μL of cell lysate or 30 μl of lysis buffer for the blanks. Incubate for 2 h with gentle agitation at ambient temperature.
Rinse the wells 4 times with 400 μl of kit washing buffer. Incubate with 100 μl of anti-phospho MET antibody for 1 hour at ambient temperature.
Rinse the wells 4 times with 400 μl of kit washing buffer. Incubate with 100 μl of anti-rabbit HRP antibody for 30 minutes at ambient temperature (except for the wells of chromogen alone).
Rinse the wells 4 times with 400 μl of kit washing buffer. Introduce 100 μL of chromogen and incubate for 30 minutes in the dark at ambient temperature.
as §1
Target sequence in this assay (P08581 25-1390): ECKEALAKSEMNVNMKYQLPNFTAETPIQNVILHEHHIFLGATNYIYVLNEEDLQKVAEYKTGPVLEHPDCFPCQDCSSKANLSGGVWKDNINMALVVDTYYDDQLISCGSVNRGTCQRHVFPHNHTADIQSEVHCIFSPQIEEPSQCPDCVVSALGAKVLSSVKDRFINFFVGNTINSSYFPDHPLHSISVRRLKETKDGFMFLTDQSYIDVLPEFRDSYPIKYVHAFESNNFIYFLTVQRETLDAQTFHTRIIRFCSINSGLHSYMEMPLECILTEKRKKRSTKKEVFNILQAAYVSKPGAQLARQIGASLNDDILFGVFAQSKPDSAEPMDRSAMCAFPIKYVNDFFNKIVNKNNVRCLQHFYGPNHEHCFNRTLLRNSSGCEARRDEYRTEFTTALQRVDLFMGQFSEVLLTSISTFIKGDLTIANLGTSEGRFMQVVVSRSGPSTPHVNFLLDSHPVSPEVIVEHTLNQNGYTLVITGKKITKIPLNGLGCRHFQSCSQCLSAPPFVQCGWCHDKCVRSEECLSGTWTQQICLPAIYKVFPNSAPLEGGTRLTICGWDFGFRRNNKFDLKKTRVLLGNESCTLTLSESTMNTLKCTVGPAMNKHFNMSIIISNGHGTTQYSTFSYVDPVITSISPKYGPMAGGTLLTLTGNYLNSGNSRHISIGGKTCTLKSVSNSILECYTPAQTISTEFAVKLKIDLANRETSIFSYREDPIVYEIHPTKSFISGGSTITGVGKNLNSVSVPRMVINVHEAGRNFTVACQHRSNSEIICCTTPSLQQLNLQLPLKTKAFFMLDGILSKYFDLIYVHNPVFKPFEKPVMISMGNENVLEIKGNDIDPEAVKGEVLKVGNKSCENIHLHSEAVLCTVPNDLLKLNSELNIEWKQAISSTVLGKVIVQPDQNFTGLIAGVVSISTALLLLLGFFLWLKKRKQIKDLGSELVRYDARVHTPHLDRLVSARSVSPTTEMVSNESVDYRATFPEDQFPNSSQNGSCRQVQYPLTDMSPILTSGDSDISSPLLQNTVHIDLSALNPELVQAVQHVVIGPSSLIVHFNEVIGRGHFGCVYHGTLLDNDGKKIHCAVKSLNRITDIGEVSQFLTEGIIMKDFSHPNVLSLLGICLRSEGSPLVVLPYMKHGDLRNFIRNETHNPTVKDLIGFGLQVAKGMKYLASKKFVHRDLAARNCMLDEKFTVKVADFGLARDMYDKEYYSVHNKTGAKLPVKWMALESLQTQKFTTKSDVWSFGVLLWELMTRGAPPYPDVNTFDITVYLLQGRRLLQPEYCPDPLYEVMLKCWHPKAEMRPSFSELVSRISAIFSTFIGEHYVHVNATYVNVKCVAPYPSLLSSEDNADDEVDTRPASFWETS
For orientation: ELISA stands for enzyme-linked immunosorbent assay.

Where a name gives a salt, the structure may show the parent alone. A value given as a limit tells only on which side of the number the result lay.

As for `CN1CCN(CCNC(=O)Nc2nc3ccc(Sc4nnc5n4N=C(c4ccc(F)cc4)CC5)cc3s2)CC1` [Example 13, 1-(6-{[6-(4-Fluorophenyl)-7,8-dihydro[1,2,4]triazolo[4,3-b]pyridazin-3-yl]sulphanyl}-1,3-benzothiazol-2-yl)-3-[2-(4-methylpiperazin-1-yl)ethyl]urea], the IC50 (usually the concentration that gives 50% inhibition) in experiment [1] was below 100 nM; in experiment [2], below 1000 nM; in experiment [3], below 100 nM.

With `CN1CCN(CCNC(=O)Nc2nc3ccc(Sc4nnc5ccc(-c6ccc(F)cc6)nn45)cc3s2)CC1` [Example 14, 1-(6-{[6-(4-Fluorophenyl)[1,2,4]triazolo[4,3-b]pyridazin-3-yl]sulphanyl}-1,3-benzothiazol-2-yl)-3-[2-(4-methylpiperazin-1-yl)ethyl]urea], the IC50 in experiment [1] was below 100 nM; in experiment [2] it was below 1000 nM; in experiment [3] it was below 100 nM.

Regarding `O=C(CCCN1CCOCC1)Nc1nc2ccc(Sc3nnc4ccc(-c5ccc(F)cc5)nn34)cc2s1` [Example 15, N-(6-{[6-(4-Fluorophenyl)[1,2,4]triazolo[4,3-b]pyridazin-3-yl]sulphanyl}-1,3-benzothiazol-2-yl)-4-morpholin-4-ylbutanamide], the values for the IC50 in experiment [1], in experiment [2] and in experiment [3] were below 100 nM, below 1000 nM and below 100 nM, respectively.

Take `CC(C)(C)OC(=O)Nc1nc2ccc(Sc3nnc4ccc(N5CCOCC5)nn34)cc2s1` [Example 16, 1,1-Dimethylethyl (6-{[6-(morpholin-4-yl)[1,2,4]triazolo[4,3-b]pyridazin-3-yl]sulphanyl}-1,3-benzothiazol-2-yl)carbamate]: the half-inhibitory concentration (IC50) in experiment [1] was below 100 nM; in experiment [2] it was below 1000 nM; in experiment [3], below 100 nM.

Turning to `CCN(CC)CCNC(=O)Nc1nc2ccc(Sc3nnc4ccc(-c5ccc(F)cc5)nn34)cc2s1` [Example 17, 1-[2-(Diethylamino)ethyl]-3-(6-{[6-(4-fluorophenyl)[1,2,4]triazolo[4,3-b]pyridazin-3-yl]sulphanyl}-1,3-benzothiazol-2-yl)urea], the results for the IC50 in experiment [1], in experiment [2] and in experiment [3] were below 100 nM, below 1000 nM and below 100 nM, respectively.

In the case of `CC(=O)Nc1nc2ccc(Sc3nnc4ccc(N5CCOCC5)nn34)cc2s1` [Example 18, N-(6-{[6-(Morpholin-4-yl)[1,2,4]triazolo[4,3-b]pyridazin-3-yl]sulphanyl}-1,3-benzothiazol-2-yl)acetamide], the IC50 in experiment [1] is below 100 nM; in experiment [2], below 1000 nM; in experiment [3], 100 to 500 nM.

Consider `CN1CCN(c2ccc3nnc(Sc4ccc5nc(NC(=O)OC(C)(C)C)sc5c4)n3n2)CC1` [Example 19, 1,1-Dimethylethyl (6-{[6-(4-methylpiperazin-1-yl)[1,2,4]triazolo[4,3-b]pyridazin-3-yl]sulphanyl}-1,3-benzothiazol-2-yl)carbamate hydrochloride], for which the IC50 in experiment [1] is below 100 nM; in experiment [2], below 1000 nM; in experiment [3], below 100 nM.

In the case of `O=C(NCCN1CCOCC1)Nc1nc2ccc(Sc3nnc4ccc(-n5ccnc5)nn34)cc2s1` [Example 20, 1-(6-{[6-(1H-Imidazol-1-yl)[1,2,4]triazolo[4,3-b]pyridazin-3-yl]sulphanyl}-1,3-benzothiazol-2-yl)-3-[2-(morpholin-4-yl)ethyl]urea], the IC50 in experiment [1] was below 100 nM; in experiment [2], below 1000 nM; in experiment [3] it was below 100 nM.

For the molecule `COc1ccc2nnc(Sc3ccc4nc(NC(=O)OC(C)(C)C)sc4c3)n2n1` [Example 21, 1,1-Dimethylethyl {6-[(6-methoxy[1,2,4]triazolo[4,3-b]pyridazin-3-yl)sulphanyl]-1,3-benzothiazol-2-yl}carbamate], the IC50 in experiment [1] was below 100 nM; in experiment [2] it was below 1000 nM; in experiment [3], 100 to 500 nM.

Take `CC(C)(C)OC(=O)Nc1nc2ccc(Sc3nnc4ccc(-n5ccnc5)nn34)cc2s1` [Example 22, 1,1-Dimethylethyl (6-{[6-(1H-imidazol-1-yl)[1,2,4]triazolo[4,3-b]pyridazin-3-yl]sulphanyl}-1,3-benzothiazol-2-yl)carbamate]: the IC50 in experiment [1] is below 100 nM; in experiment [2], below 1000 nM; in experiment [3], 100 to 500 nM.

Turning to `COc1ccc2nnc(Sc3ccc4nc(NC(=O)NCCN5CCOCC5)sc4c3)n2n1` [Example 23, 1-{6-[(6-Methoxy[1,2,4]triazolo[4,3-b]pyridazin-3-yl)sulphanyl]-1,3-benzothiazol-2-yl}-3-[2-(morpholin-4-yl)ethyl]urea], the figures for the IC50 in experiment [1], in experiment [2] and in experiment [3] were below 100 nM, below 1000 nM and below 100 nM, respectively.

Regarding `COCCNc1ccc2nnc(Sc3ccc4nc(NC(=O)OC(C)(C)C)sc4c3)n2n1` [Example 24, 1,1-Dimethylethyl[6-({6-[(2-methoxyethyl)amino][1,2,4]triazolo[4,3-b]pyridazin-3-yl}sulphanyl)-1,3-benzothiazol-2-yl]carbamate], the results for the IC50 in experiment [1], in experiment [2] and in experiment [3] were below 100 nM, below 1000 nM and below 100 nM, respectively.
